These results are taken from patent US9394555B2, “Compositions comprising a polypeptide having cellulolytic enhancing activity and a dioxy compound and uses thereof” (priority 2010, dated 2016).

Experiment [1] deals with T. aurantiacus CEL5A endoglucanase II and P. brasilianum CEL3A beta-glucosidase. Nature of the experiment: Microcrystalline cellulose conversion assay I (Examples 8, 9) without GH61 polypeptide. It counts as biochemical, Thermoascus aurantiacus; Penicillium brasilianum. The conditions noted are these: dioxy compound 0.3% w/w + endoglucanase II + beta-glucosidase (5 mg/g each), no GH61; 96 hours, at either 50° C. or 60° C. Here is the method: A 5% microcrystalline cellulose slurry was prepared by addition of 2.5 g of AVICEL®PH101 (Sigma-Aldrich, St. Louis, Mo., USA) to a graduated 50 ml screw-cap conical tube followed by 15 ml of 1 M sodium acetate pH 5 and 1 ml of 100 mM MnSO4 and approximately 20 ml of deionizer water. Each conical tube was then mixed thoroughly by shaking/vortexing, and adjusted to 50 ml total with deionized water and mixed again. Contents of the tube were then quickly transferred to a 100 ml beaker and stirred rapidly with a magnetic stirrer. Five hundred μl aliquots of the 5% AVICEL® slurry were pipetted into wells of a 2.0 ml 96-deepwell plate (Axygen, Union City, Calif., USA) using a 1000 μl micropipette with a wide aperture tip (end of tip cut off about 2 mm from the base). Three hundred μl of either deionized water or a 1% dioxy compound solution (dissolved in deionized water) was added to each well.
The dioxy compounds assayed include caffeic acid (Sigma-Aldrich, St. Louis, Mo., USA), dichlorophenolindophenol (DCPIP; Sigma-Aldrich, St. Louis, Mo., USA), ethyl gallate (Sigma-Aldrich, St. Louis, Mo., USA), gallic acid (Sigma-Aldrich, St. Louis, Mo., USA), 3,4-dihydroxybenzoic acid (Sigma-Aldrich, St. Louis, Mo., USA), pyrocatechol (Sigma-Aldrich, St. Louis, Mo., USA), pyrogallol (Sigma-Aldrich, St. Louis, Mo., USA), sinapinic acid (3,5 dimethoxy-4-hydroxy cinnamic acid; Apin Chemicals LTD, Abingdon, UK), and tannic acid (Sigma-Aldrich, St. Louis, Mo., USA).
Enzyme mixtures were prepared and then added simultaneously to all wells in a volume of 200 μl, for a total of 1 ml in each reaction. […] All experiments reported were performed in triplicate.
(§1) After approximately 4 days, the deep-well plate was removed from the incubator and chilled overnight to 4° C. The plate was then mixed well by inversion and briefly centrifuged at 52×g in a SORVALL® RT7 centrifuge (Thermo Fisher Scientific, Waltham, Mass., USA) for 10 seconds. Samples were then mixed by pipetting, and 200 μl from each well were transferred to a MULTISCREEN® HV centrifuge filter plate assembly (Millipore, Bedford, Mass., USA). The centrifuge filter plate assembly was centrifuged at 2000 rpm in a SORVALL® RT7 centrifuge for 20 minutes. […] Sugars were detected using a refractive index detector (Agilent Technologies, Inc., Santa Clara, Calif., USA) with quantification by integration compared to purified sugar standards.
In this assay only glucose was measured since beta-glucosidase was at high levels in all samples but the controls.
A limit digest was performed to determine the total concentration accessible glucose equivalents using 100 mg of T. reesei cellulase (CELLIC™ CTec, Novozymes A/S, Bagsvaerd, Denmark) per gram cellulose, Triplicate data points were averaged and standard deviation was calculated.

Experiment [2] has as its target T. aurantiacus GH61A polypeptide (Thermoascus aurantiacus, UniProt G3XAP7, N13Y). Nature of the experiment: Microcrystalline cellulose conversion assay II (Examples 10, 11), T. reesei CEL7A cellobiohydrolase I + A. oryzae CEL3A beta-glucosidase. It counts as biochemical. The conditions noted are these: 72 hours, 50° C. Here is the method: A 5% microcrystalline cellulose slurry was prepared by addition of 2.5 g of AVICEL® PH101 to a graduated 50 ml screw-cap conical tube followed by approximately 40 ml of deionized water. Each conical tube was then mixed thoroughly by shaking/vortexing, and adjusted to 50 ml total with deionized water and mixed again. For samples containing dioxy compounds, a similar slurry was prepared by the addition of 100 mg of solid dioxy compound and 2.5 g of AVICEL® PH101 to a graduated 50 ml screw-cap conical tube followed by approximately 40 ml of deionized water. Each conical tube was then mixed thoroughly by shaking/vortexing, and adjusted to 50 ml total with deionized water and mixed again.
The dioxy compounds assayed include caffeic acid, dichlorophenolindophenol (DCPIP), ethyl gallate, gallic acid, 3,4-dihydroxybenzoic acid, pyrocatechol, pyrogallol, sinapinic acid (3,5 dimethoxy-4-hydroxy cinnamic acid), and tannic acid.
In all cases, the contents of the tube (5% microcrystalline cellulose slurry with or without 0.2% dioxy compound) were then quickly transferred to a 100 ml beaker and stirred rapidly with a magnetic stirrer. Five hundred μl aliquots of the 5% AVICEL® slurry were pipetted into wells of a 2.0 ml 96-deepwell plate (Axygen, Union City, Calif.) using a 1000 μl micropipette with a wide aperture tip (end of tip cut off about 2 mm from the base). One hundred μl of deionized water and 300 μl of 3.33 mM MnSO4-500 mM sodium acetate pH 5 were then added to each well. Enzyme mixtures were prepared and then added simultaneously to all wells in a volume of 100 μl, for a total of 1 ml in each reaction. […] All experiments reported were performed in triplicate.
as §1, with “Primary analysis of the hydrolysis reactions was performed using an AGILENT® 1100 HPLC with CHEMSTATION® software equipped with an AMINEX™ HPX-87H column. After” for “After”, “centrifuge” for “centrifuge (Thermo Fisher Scientific, Waltham, Mass., USA)”, “assembly.” for “assembly (Millipore, Bedford, Mass., USA).”, “detector” for “detector (Agilent Technologies, Inc., Santa Clara, Calif., USA)”
All HPLC data processing was performed using MICROSOFT EXCEL™ software. […] In this assay only glucose was measured since beta-glucosidase was at high levels in all samples but the controls. The degree of cellulose conversion was calculated using Equation 1. Triplicate data points were averaged and standard deviation was calculated.
The microcrystalline cellulose hydrolysis assay was performed as described in Example 10.
Data were collected and analyzed, as described in Example 10, after 72 hours of incubation at 50° C.

As to `O=C(O)c1cc(O)c(O)c(O)c1` [gallic acid], the “change in conversion of microcrystalline cellulose compared to the enzymes in the absence of the dioxy compound” value in experiment [1] was “no significant change”. Besides, the “conversion (hydrolysis) of the microcrystalline cellulose” value in experiment [2] (dioxy compound 0.1% w/w alone, no enzymes) was “no significant hydrolysis”.

B1: T. aurantiacus GH61A polypeptide: GH61A polypeptide having cellulolytic enhancing activity (SEQ ID NO: 14), recombinantly produced in Aspergillus oryzae JaL250 (protein, listed as Thermoascus aurantiacus)
chain: MSFSKIIATAGVLASASLVAGHGFVQNIVIDGKYYGGYLVNQYPYMSNPPEVIAWSTTATDLGFVDGTGYQTPDIICHRGAKPGALTAPVSPGGTVELQWTPWPDSHHGPVINYLAPCNGDCSTVDKTQLEFFKIAESGLINDDNPPGIWASDNLIAANNSWTVTIPTTIAPGNYVLRHEIIALHSAQNQDGAQNYPQCINLQVTGGGSDNPAGTLGTALYHDTDPGILINIYQKLSSYIIPGPPLYTG
For B1, the “conversion of the microcrystalline cellulose” value in experiment [2] (T. aurantiacus GH61A polypeptide (10 mg/g) + cellobiohydrolase I + beta-glucosidase (5 mg/g each), no dioxy compound) worked out at 21.4±0.5%.
